Among the data in patent US10183949B2, “Pyrimidinone derivative having autotaxin-inhibitory activity” (The University of Tokyo, priority 2014, dated 2019) are IC50 values, retold here.

The assay deals with T1, Human autotaxin enzyme (Homo sapiens, UniProt Q13822).
T1 construct: purchased R&D System
Nature of the assay: Evaluation of autotaxin inhibitor, 18:0 Lyso PC / choline assay (Test Example 2). It is filed as biochemical. The essentials:
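Human autotaxin in 100 mM Tris-HCl pH 7.5, 150 mM NaCl, 5 mM MgCl2, 0.05% Triton X-100 reacted with 18:0 Lyso PC (200 μM stock) and test compound 2 h at room temperature. Released choline quantified via choline oxidase/peroxidase resorufin fluorescence (ex 531/em 598 nm, 20 min); inhibition vs no-compound and no-enzyme controls, concentration-response curve.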

The mark [1] stands for this setting: human autotaxin enzyme, 18:0 Lyso PC substrate, choline assay, room temperature 2 hours, read-out: Inhibitor activity (IC50).
Setting [2] is: autotaxin inhibition, IC50 class, read-out: Inhibitor activity.

SMILES strings stand for the structures. Where two headings read alike, the source gives them in different places. Some results are limits rather than exact numbers.

As to `COC(=O)Nc1cc(C#N)ccc1-c1cc(=O)n(CC(=O)NC(C)(C)CO)c(C)n1` [Compound I-0400], the IC50 under setting [1] fell in the range of 10 to 100 nM. Still for that read-out and setting: with `Cc1nc(-c2ccc(Cl)cc2NC(=O)C(C)(C)C)cc(=O)n1CC(=O)NC1(c2nc(=O)o[nH]2)CC1` [Compound I-0386] the figure was 10 to 100 nM.

On to `COC(=O)Nc1cc(Cl)ccc1-c1cc(=O)n(CC(=O)N2CCC(C(N)=O)CC2)c(C)n1` [Compound I-0458], for which the IC50 under setting [1] is less than 10 nM.

For the compound `CCCCCc1nc(-c2ccc(Cl)cc2)cc(=O)n1CC(=O)NCC(=O)NCC(=O)O` [Compound I-0055], the IC50 under setting [1] is less than 10 nM. Consider `CCCCCc1nc(-c2ccc(Cl)cc2)cc(=O)n1CC(=O)NCCC(=O)O` [Compound I-0040], for which, under setting [1], the IC50 was 10 to 100 nM. On the same count and under the same terms, with `CCCCCc1nc(-c2ccc(Cl)cc2)cc(=O)n1CC(=O)NCC#N` [Compound I-0085] the figure was 10 to 100 nM; with `CC(=O)NC1CCN(C(=O)Cn2c(CCCC(F)(F)F)nc(-c3ccc(C(F)(F)F)cc3)cc2=O)CC1` [Compound I-0351], 100 to 1000 nM. The same measure, in the same setting: with `CC(C)(C)C(=O)Nc1cc(Cl)ccc1-c1cc(=O)n(Cc2cccc(C(=O)NCc3c[nH]nn3)c2)cn1` [Compound I-0488] the figure was 100 to 1000 nM. On the same count and under the same terms, the result for `Cc1nc(-c2ccc(Cl)cc2NC(=O)C(C)(C)C)cc(=O)n1CC(=O)N1CCC(C(N)=O)CC1` [Compound I-0329] reads 10 to 100 nM; that for `COC(=O)Nc1cc(Cl)ccc1-c1cc(=O)n(CC(=O)NCCNS(C)(=O)=O)c(C)n1` [Compound I-0464], 10 to 100 nM. For `CCCCCc1nc(-c2ccc(Cl)cc2NC(C)=O)cc(=O)n1CC(=O)NC1(C#N)CC1` [Compound I-0205], the IC50 under setting [1] was 10 to 100 nM. The same measure, in the same setting: with `COC(=O)Nc1cc(C#N)ccc1-c1cc(=O)n(CC(=O)NCc2cc(=O)[nH]o2)c(C)n1` [Compound I-0429] the figure was less than 10 nM. The same measure, in the same setting: with `COC(=O)Nc1cc(Cl)ccc1-c1cc(=O)n(CC(=O)NCC(C)(C)O)c(C)n1` [Compound I-0413] the figure was 10 to 100 nM. `N#CC1(NC(=O)Cn2c(CCCC(F)(F)F)nc(N3CCC(C(F)(F)F)CC3)c(F)c2=O)CC1` [Compound I-0241]: the IC50 under setting [2] was not below 1000 nM.

Regarding `COC(=O)Nc1cc(C#N)ccc1-c1cc(=O)n(CC(=O)N2CCN(C(N)=O)CC2)c(C)n1` [Compound I-0446], the IC50 under setting [1] lay within 10 to 100 nM. The same measure, in the same setting: with `COc1ccc(Cn2c(-c3ccc(Cl)cc3)cc(=O)n(CC(=O)NC(Cc3ccccc3)C(=O)O)c2=O)cc1` (centres unmarked) [Compound I-0107] the figure was not below 1000 nM; with `NC(=O)CCCNC(=O)c1cccc(Cn2c(CCCC(F)(F)F)nc(-c3ccc(Cl)cc3)cc2=O)c1` [Compound I-0184], 100 to 1000 nM; with `CNC(=O)CNC(=O)c1cccc(Cn2c(CCCC(F)(F)F)nc(-c3ccc(Cl)cc3)cc2=O)c1` [Compound I-0182], 100 to 1000 nM.

In the case of `CCCCCc1nc(-c2ccc(Cl)cc2)cc(=O)n1CC(=O)NCC1(CO)COC1` [Compound I-0035], the IC50 under setting [1] fell in the range of 10 to 100 nM. The same measure, in the same setting: the result for `COC(=O)Nc1cc(Cl)ccc1-c1cc(=O)n(CC(=O)NC2CCS(=O)(=O)C2)c(C)n1` (centres unmarked) [Compound I-0309] reads 10 to 100 nM; that for `Cc1nc(-c2ccc(Cl)cc2NC(=O)C2CC2)cc(=O)n1Cc1cccc(C(=O)O)c1` [Compound I-0279], less than 10 nM.

Turning to `O=C(Cn1c(CCCC(F)(F)F)nc(-c2ccc(Cl)cc2)cc1=O)N1CCOC(CO)C1` (centres unmarked) [Compound I-0139], the IC50 under setting [1] is 10 to 100 nM. Still for that read-out and setting: the result for `CCNC(=O)N1CCC(NC(=O)Cn2cnc(-c3ccc(Cl)cc3NC(=O)C(C)(C)C)cc2=O)CC1` [Compound I-0487] reads 100 to 1000 nM.

Regarding `O=C(O)c1ccc(Cn2c(CCCC(F)(F)F)nc(-c3ccc(Cl)cc3)cc2=O)s1` [Compound I-0293], the IC50 under setting [1] was in the range of 10 to 100 nM. Same read-out and setting: the result for `COC(=O)Nc1cc(C#N)ccc1-c1cc(=O)n(CC(=O)OC(C)(C)C#N)c(C)n1` [Compound I-0373] reads 10 to 100 nM; that for `O=C(NCc1cnccn1)c1cccc(Cn2c(CCCC(F)(F)F)nc(-c3ccc(Cl)cc3)cc2=O)c1` [Compound I-0169], 100 to 1000 nM. Regarding `COC(=O)c1cncc(Cn2c(CCCC(F)(F)F)nc(-c3ccc(Cl)cc3)cc2=O)c1` [Compound I-0307], the IC50 under setting [1] fell in the range of 100 to 1000 nM. Take `Cc1nc(-c2ccc(C#N)cc2NC(=O)C(C)(C)C)cc(=O)n1CC(=O)NCC1(CO)COC1` [Compound I-0308]: the IC50 under setting [1] fell in the range of 10 to 100 nM.

Consider `CCCCCc1nc(-c2ccc(Cl)cc2)cc(=O)n1CC(=O)NCC(C)(C)O` [Compound I-0098], for which, under setting [1], the IC50 lay in the range of 10 to 100 nM. Consider `CSc1nc(-c2ccc(Cl)cc2NC(C)=O)cc(=O)n1CC(=O)NCC(C)(C)O` [Compound I-0250], for which the IC50 under setting [2] lay in the range of 10 to 100 nM. On to `O=C(NC(CO)(CO)CO)c1cccc(Cn2c(CCCC(F)(F)F)nc(-c3ccc(Cl)cc3)cc2=O)c1` [Compound I-0188], for which the IC50 under setting [1] is 100 to 1000 nM. Regarding `CC(C)(C)C(=O)Nc1cc(Cl)ccc1-c1cc(=O)n(CC(=O)NCC2CCC(=O)NC2)cn1` (centres unmarked) [Compound I-0469], the IC50 under setting [1] fell in the range of 100 to 1000 nM.

As to `Cc1nc(-c2ccc(Cl)cc2NC(=O)C(C)(C)C)cc(=O)n1CC(=O)Nc1cccnc1O` [Compound I-0310], the IC50 under setting [1] fell in the range of 10 to 100 nM.

`O=C(Cn1c(CCCC(F)(F)F)nc(-c2ccc(Cl)cc2)cc1=O)NC(CO)(CO)CO` [Compound I-0135]: the IC50 under setting [1] is 10 to 100 nM.

Regarding `COC(=O)Nc1cc(Cl)ccc1-c1cc(=O)n(CC(=O)NC(C)(C)C)c(C)n1` [Compound I-0265], the IC50 under setting [1] was in the range of 10 to 100 nM. On the same count and under the same terms, with `COC(=O)Nc1cc(Cl)ccc1-c1cc(=O)n(CC(=O)N2CCN(C(N)=O)CC2)c(C)n1` [Compound I-0459] the figure was 10 to 100 nM; with `CCOC(=O)c1nc(Cn2c(CCCC(F)(F)F)nc(-c3ccc(Cl)cc3)cc2=O)cs1` [Compound I-0326], 10 to 100 nM. As to `CCCCCc1nc(-c2ccc(Cl)cc2)cc(=O)n1CC(=O)N(C)Cc1ccccc1` [Compound I-0036], the IC50 under setting [1] lay within 100 to 1000 nM.

Take `CCOCCc1nc(-c2ccc(Cl)cc2)cc(=O)n1CC(=O)NC1(C#N)CC1` [Compound I-0221]: the IC50 under setting [1] lay in the range of 10 to 100 nM.

Regarding `COC(=O)Nc1cc(C#N)ccc1-c1cc(=O)n(CC(=O)NC(C)(C)C(F)(F)F)c(C)n1` [Compound I-0444], under setting [1], the IC50 is less than 10 nM. Same read-out and setting: the result for `O=C(NC(CO)c1ccccc1)c1cccc(Cn2c(CCCC(F)(F)F)nc(-c3ccc(Cl)cc3)cc2=O)c1` (centres unmarked) [Compound I-0178] reads 100 to 1000 nM; that for `O=C(O)c1cccc(Cn2c(CCCC(F)(F)F)nc(-c3ccc(Cl)cc3CO)cc2=O)c1` [Compound I-0322], 10 to 100 nM. Same read-out and setting: the result for `CCCCCc1nc(-c2ccc(Cl)cc2)cc(=O)n1CC(=O)NCCC(C)O` (centres unmarked) [Compound I-0096] reads 100 to 1000 nM; that for `COC(=O)c1cccc(Cn2c(CCCC(F)(F)F)nc(-c3ccc(Cl)cc3)cc2=O)n1` [Compound I-0306], 10 to 100 nM. The same measure, in the same setting: with `CCCCCc1nc(-c2ccc(Cl)cc2)cc(=O)n1CC(=O)NC1CCOCC1` [Compound I-0086] the figure was 100 to 1000 nM; with `Cc1nc(-c2ccc(Cl)cc2NC(=O)C2CC2)cc(=O)n1CC(=O)NC(C)(C)C(F)(F)F` [Compound I-0462], 10 to 100 nM; with `COC(=O)Nc1cc(Cl)ccc1-c1cc(=O)n(CC(=O)NC2(c3ccc(F)cc3)COC2)c(C)n1` [Compound I-0480], 10 to 100 nM. Take `CNC(=O)CNC(=O)Cn1c(CCCC(F)(F)F)nc(-c2ccc(Cl)cc2)cc1=O` [Compound I-0126]: under setting [1], the IC50 lay in the range of 100 to 1000 nM. Same read-out and setting: the result for `Cc1nc(-c2ccc(C#N)cc2NC(=O)C2CC2)cc(=O)n1Cc1cccc(C(=O)O)c1` [Compound I-0271] reads less than 10 nM; that for `Cc1nc(C2=CCC(C(F)(F)F)CC2)cc(=O)n1Cc1cccc(C(=O)O)c1` (centres unmarked) [Compound I-0262], 100 to 1000 nM. Consider `CS(C)(=O)=NC(=O)Cn1c(CCCC(F)(F)F)nc(-c2ccc(C(F)(F)F)cc2)cc1=O` [Compound I-0325], for which the IC50 under setting [1] is 10 to 100 nM.

Turning to `COC(=O)Nc1cc(Cl)ccc1-c1cc(=O)n(CC(=O)NC(C)(C)CF)c(C)n1` [Compound I-0415], the IC50 under setting [1] was less than 10 nM. With `COC(=O)Nc1cc(Cl)ccc1-c1cc(=O)n(CC(=O)NC2(C)CCS(=O)(=O)C2)c(C)n1` (centres unmarked) [Compound I-0324], the IC50 under setting [1] was 10 to 100 nM. The same measure, in the same setting: with `CCCCCc1nc(-c2ccc(Cl)cc2)cc(=O)n1CC(=O)N1CCC(F)(F)CC1` [Compound I-0087] the figure was 10 to 100 nM; with `N#CC1(NC(=O)Cn2c(CCCC(F)(F)F)nc(-c3c(F)cc(Cl)cc3F)cc2=O)CC1` [Compound I-0234], 10 to 100 nM; with `CC(C)(C)C(=O)Nc1cc(Cl)ccc1-c1cc(=O)n(Cc2cccc(C(=O)O)c2)cn1` [Compound I-0427], 10 to 100 nM.

Turning to `COC1CCN(c2cc(=O)n(CC(=O)NC3(C#N)CC3)c(CCCC(F)(F)F)n2)CC1` [Compound I-0238], the IC50 under setting [1] was in the range of 100 to 1000 nM.

As for `COC(=O)Nc1cc(Cl)ccc1-c1cc(=O)n(Cc2cccc(C(=N)NO)c2)c(C)n1` [Compound I-0377], the IC50 under setting [1] lay within 10 to 100 nM.

Regarding `COC(=O)Nc1cc(Cl)ccc1-c1cc(=O)n(CC(=O)N2CCC(c3nc(=O)o[nH]3)CC2)c(C)n1` [Compound I-0482], under setting [1], the IC50 is less than 10 nM.

`CCCCCNc1nc(-c2ccc(C(F)(F)F)cc2)cc(=O)n1Cc1cccc(C(=O)NCCC(=O)O)c1` [Compound I-0016]: under setting [1], the IC50 was in the range of 100 to 1000 nM. Consider `CCCCCc1nc(-c2ccc(Cl)cc2)cc(=O)n1CC(=O)NC1(C(=O)O)CC1` [Compound I-0069], for which the IC50 under setting [1] lay in the range of 10 to 100 nM.

Regarding `CCOCCc1nc(-c2ccc(Cl)cc2)cc(=O)n1CC(=O)NCC1(CO)CC1` [Compound I-0223], the IC50 under setting [1] fell in the range of 100 to 1000 nM. The same measure, in the same setting: with `Cc1nc(-c2ccc(Cl)cc2NC(=O)C(C)(C)C)cc(=O)n1CC(=O)NCC1(CO)COC1` [Compound I-0317] the figure was 10 to 100 nM; with `Cc1nc(-c2ccc(Cl)cc2NC(=O)C(C)(C)C)cc(=O)n1CC(=O)NC1(C(=N)NO)CC1` [Compound I-0380], 10 to 100 nM.

Turning to `CCCCCNc1nc(-c2ccc(C(F)(F)F)cc2)cc(=O)n1Cc1cccc(C(=O)NCC(N)=O)c1` [Compound I-0013], the IC50 under setting [1] lay in the range of 100 to 1000 nM.
